Our source for the EC50 values is US10894817B2, “Fatty acid modified urocortin-2 analogs for the treatment of diabetes and chronic kidney disease” (priority 2016, dated 2021).

Structures are written as SMILES. pEC50: −log10 of the molar value. Starred links: 1 amine or outer side, 2 acyl side, 3 side chain; linkers in the order of their positions; H or OH if unused. Residues, ends and D or L forms follow the SMILES beside them. Groups on a side chain read outwards from the residue. *: point of attachment. C18 diacid = O=C(O)CCCCCCCCCCCCCCCCC(=O)*; γGlu = O=C(O)[C@H](CCC(=O)[*:2])N[*:1]; AEEA = NCCOCCOCC(=O)O

One assay has as its target T1, human CRHR2b (Homo sapiens, UniProt Q13324).
T1 construct: expressed in transfected cells; host or cells: Chinese Hamster Ovary (CHO) cells, transient transfection
T1 sequence (Q13324 1-438 isoform Q13324-2): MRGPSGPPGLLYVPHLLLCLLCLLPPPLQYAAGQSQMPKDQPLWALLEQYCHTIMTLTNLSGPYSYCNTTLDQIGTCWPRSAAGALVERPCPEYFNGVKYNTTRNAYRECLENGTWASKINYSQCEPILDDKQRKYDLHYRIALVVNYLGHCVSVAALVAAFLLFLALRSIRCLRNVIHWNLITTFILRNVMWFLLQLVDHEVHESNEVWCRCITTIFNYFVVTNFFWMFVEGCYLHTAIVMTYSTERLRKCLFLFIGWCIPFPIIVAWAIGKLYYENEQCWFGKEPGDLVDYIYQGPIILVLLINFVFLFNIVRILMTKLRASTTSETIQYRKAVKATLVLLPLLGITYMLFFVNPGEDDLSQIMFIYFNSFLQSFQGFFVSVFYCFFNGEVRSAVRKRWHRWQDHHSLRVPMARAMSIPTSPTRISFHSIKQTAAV
As to the kind of experiment: human CRHR2b cell-based cAMP assay.
Conditions: not given
The essentials:
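ED50 values are means ± SEM over several runs, curve-fitted from cAMP in pmol, calibrated against unlabeled-cAMP standards. Detection was HTRF competition, ratio 665/620 nm, after 30 min agonist exposure at 37 °C.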
(Changes in cAMP serve as a functional read-out for many G protein-coupled receptors.)
What is called pEC50 is −log10 of the EC50, conventionally taken in molar units. The molecule `CC[C@H](C)[C@H](N)C(=O)N[C@H](C(=O)N[C@@H](CC(C)C)C(=O)N[C@@H](CO)C(=O)N[C@@H](CC(C)C)C(=O)N[C@@H](CC(=O)O)C(=O)N[C@H](C(=O)N1CCC[C@H]1C(=O)N[C@H](C(=O)NCC(=O)N[C@@H](CC(C)C)C(=O)N[C@@H](CC(C)C)C(=O)N[C@@H](CCC(N)=O)C(=O)N[C@H](C(=O)N[C@@H](CC(C)C)C(=O)N[C@@H](CC(C)C)C(=O)N[C@@H](CCCCNC(=O)COCCOCCNC(=O)COCCOCCNC(=O)CC[C@H](NC(=O)CC[C@H](NC(=O)CCCCCCCCCCCCCCCCC(=O)O)C(=O)O)C(=O)O)C(=O)N[C@@H](CCC(N)=O)C(=O)N[C@@H](CCC(=O)O)C(=O)N[C@@H](CCCCN)C(=O)N[C@@H](CCC(N)=O)C(=O)N[C@@H](CCC(=O)O)C(=O)N[C@@H](CCCCN)C(=O)N[C@@H](CCC(=O)O)C(=O)N[C@@H](CCCCN)C(=O)N[C@@H](CCC(N)=O)C(=O)N[C@@H](CCC(N)=O)C(=O)N[C@@H](C)C(=O)N[C@H](C(=O)N[C@H](C(=O)N[C@@H](CC(N)=O)C(=O)N[C@@H](C)C(=O)N[C@@H](CCC(N)=O)C(=O)N[C@H](C(=O)N[C@@H](CC(C)C)C(=O)N[C@@H](C)C(=O)N[C@@H](Cc1c[nH]cn1)C(=O)N[C@H](C(N)=O)C(C)C)[C@@H](C)CC)[C@@H](C)O)[C@@H](C)O)[C@@H](C)CC)[C@@H](C)CC)C(C)C)C(C)C` [Compound 43] (H-IVLSLDVPIGLLQILLK([AEEA-AEEA-γGlu-γGlu-C18 diacid])QEKQEKEKQQATTNAQILAHV-NH2) had a pEC50 of 7.90.

Still in this assay, the particulars now being: cAMP assay; Table 26, compounds of Example 9; read-out: hCRHR2b Average EC50.
Turning to `CC[C@H](C)[C@H](N)C(=O)N[C@H](C(=O)N[C@@H](CC(C)C)C(=O)N[C@@H](CO)C(=O)N[C@@H](CC(C)C)C(=O)N[C@@H](CC(=O)O)C(=O)N[C@H](C(=O)N1CCC[C@H]1C(=O)N[C@H](C(=O)NCC(=O)N[C@@H](CC(C)C)C(=O)N[C@@H](CC(C)C)C(=O)N[C@@H](CCC(N)=O)C(=O)N[C@H](C(=O)N[C@@H](CC(C)C)C(=O)N[C@@H](CCCCNC(=O)COCCOCCNC(=O)COCCOCCNC(=O)CC[C@H](NC(=O)CC[C@H](NC(=O)CCCCCCCCCCCCCCCCC(=O)O)C(=O)O)C(=O)O)C(=O)N[C@@H](CCC(=O)O)C(=O)N[C@@H](CCC(N)=O)C(=O)N[C@@H](CCC(=O)O)C(=O)N[C@@H](CCCCN)C(=O)N[C@@H](CCC(N)=O)C(=O)N[C@@H](CCC(=O)O)C(=O)N[C@@H](CCCCN)C(=O)N[C@@H](CCC(=O)O)C(=O)N[C@@H](CCCCN)C(=O)N[C@@H](CCC(N)=O)C(=O)N[C@@H](CCC(N)=O)C(=O)N[C@@H](C)C(=O)N[C@H](C(=O)N[C@H](C(=O)N[C@@H](CC(N)=O)C(=O)N[C@@H](C)C(=O)N[C@@H](CCC(N)=O)C(=O)N[C@H](C(=O)N[C@@H](CC(C)C)C(=O)N[C@@H](C)C(=O)N[C@@H](Cc1c[nH]cn1)C(=O)N[C@H](C(N)=O)C(C)C)[C@@H](C)CC)[C@@H](C)O)[C@@H](C)O)[C@@H](C)CC)[C@@H](C)CC)C(C)C)C(C)C` [Compound 42] (H-IVLSLDVPIGLLQILK([AEEA-AEEA-γGlu-γGlu-C18 diacid])EQEKQEKEKQQATTNAQILAHV-NH2), the pEC50 was 6.30.

As for `CC[C@H](C)[C@H](N)C(=O)N[C@H](C(=O)N[C@@H](CC(C)C)C(=O)N[C@@H](CO)C(=O)N[C@@H](CC(C)C)C(=O)N[C@@H](CC(=O)O)C(=O)N[C@H](C(=O)N1CCC[C@H]1C(=O)N[C@H](C(=O)NCC(=O)N[C@@H](CC(C)C)C(=O)N[C@@H](CC(C)C)C(=O)N[C@@H](CCC(N)=O)C(=O)N[C@H](C(=O)N[C@@H](CC(C)C)C(=O)N[C@@H](CC(C)C)C(=O)N[C@@H](CCC(=O)O)C(=O)N[C@@H](CCCCNC(=O)COCCOCCNC(=O)COCCOCCNC(=O)CC[C@H](NC(=O)CC[C@H](NC(=O)CCCCCCCCCCCCCCCCC(=O)O)C(=O)O)C(=O)O)C(=O)N[C@@H](CCC(=O)O)C(=O)N[C@@H](CCCCN)C(=O)N[C@@H](CCC(N)=O)C(=O)N[C@@H](CCC(=O)O)C(=O)N[C@@H](CCCCN)C(=O)N[C@@H](CCC(=O)O)C(=O)N[C@@H](CCCCN)C(=O)N[C@@H](CCC(N)=O)C(=O)N[C@@H](CCC(N)=O)C(=O)N[C@@H](C)C(=O)N[C@H](C(=O)N[C@H](C(=O)N[C@@H](CC(N)=O)C(=O)N[C@@H](C)C(=O)N[C@@H](CCC(N)=O)C(=O)N[C@H](C(=O)N[C@@H](CC(C)C)C(=O)N[C@@H](C)C(=O)N[C@@H](Cc1c[nH]cn1)C(=O)N[C@H](C(N)=O)C(C)C)[C@@H](C)CC)[C@@H](C)O)[C@@H](C)O)[C@@H](C)CC)[C@@H](C)CC)C(C)C)C(C)C` [Compound 44] (H-IVLSLDVPIGLLQILLEK([AEEA-AEEA-γGlu-γGlu-C18 diacid])EKQEKEKQQATTNAQILAHV-NH2), the pEC50 is 7.87.

For `CC[C@H](C)[C@H](N)C(=O)N[C@H](C(=O)N[C@@H](CC(C)C)C(=O)N[C@@H](CO)C(=O)N[C@@H](CC(C)C)C(=O)N[C@@H](CC(=O)O)C(=O)N[C@H](C(=O)N1CCC[C@H]1C(=O)N[C@H](C(=O)NCC(=O)N[C@@H](CC(C)C)C(=O)N[C@@H](CC(C)C)C(=O)N[C@@H](CCC(N)=O)C(=O)N[C@H](C(=O)N[C@@H](CC(C)C)C(=O)N[C@@H](CC(C)C)C(=O)N[C@@H](CCC(=O)O)C(=O)N[C@@H](CCC(N)=O)C(=O)N[C@@H](CCC(=O)O)C(=O)N[C@@H](CCCCN)C(=O)N[C@@H](CCCCNC(=O)COCCOCCNC(=O)COCCOCCNC(=O)CC[C@H](NC(=O)CC[C@H](NC(=O)CCCCCCCCCCCCCCCCC(=O)O)C(=O)O)C(=O)O)C(=O)N[C@@H](CCC(=O)O)C(=O)N[C@@H](CCCCN)C(=O)N[C@@H](CCC(=O)O)C(=O)N[C@@H](CCCCN)C(=O)N[C@@H](CCC(N)=O)C(=O)N[C@@H](CCC(N)=O)C(=O)N[C@@H](C)C(=O)N[C@H](C(=O)N[C@H](C(=O)N[C@@H](CC(N)=O)C(=O)N[C@@H](C)C(=O)N[C@@H](CCC(N)=O)C(=O)N[C@H](C(=O)N[C@@H](CC(C)C)C(=O)N[C@@H](C)C(=O)N[C@@H](Cc1c[nH]cn1)C(=O)N[C@H](C(N)=O)C(C)C)[C@@H](C)CC)[C@@H](C)O)[C@@H](C)O)[C@@H](C)CC)[C@@H](C)CC)C(C)C)C(C)C` [Compound 45] (H-IVLSLDVPIGLLQILLEQEKK([AEEA-AEEA-γGlu-γGlu-C18 diacid])EKEKQQATTNAQILAHV-NH2), the pEC50 was 7.56.

For `CC[C@H](C)[C@H](N)C(=O)N[C@H](C(=O)N[C@@H](CC(C)C)C(=O)N[C@@H](CO)C(=O)N[C@@H](CC(C)C)C(=O)N[C@@H](CC(=O)O)C(=O)N[C@H](C(=O)N1CCC[C@H]1C(=O)N[C@H](C(=O)NCC(=O)N[C@@H](CC(C)C)C(=O)N[C@@H](CC(C)C)C(=O)N[C@@H](CCC(N)=O)C(=O)N[C@H](C(=O)N[C@@H](CC(C)C)C(=O)N[C@@H](CC(C)C)C(=O)N[C@@H](CCC(=O)O)C(=O)N[C@@H](CCC(N)=O)C(=O)N[C@@H](CCC(=O)O)C(=O)N[C@@H](CCCCN)C(=O)N[C@@H](CCC(N)=O)C(=O)N[C@@H](CCC(=O)O)C(=O)N[C@@H](CCCCN)C(=O)N[C@@H](CCC(=O)O)C(=O)N[C@@H](CCCCNC(=O)COCCOCCNC(=O)COCCOCCNC(=O)CC[C@H](NC(=O)CC[C@H](NC(=O)CCCCCCCCCCCCCCCCC(=O)O)C(=O)O)C(=O)O)C(=O)N[C@@H](CCC(N)=O)C(=O)N[C@@H](CCC(N)=O)C(=O)N[C@@H](C)C(=O)N[C@H](C(=O)N[C@H](C(=O)N[C@@H](CC(N)=O)C(=O)N[C@@H](C)C(=O)N[C@@H](CCC(N)=O)C(=O)N[C@H](C(=O)N[C@@H](CC(C)C)C(=O)N[C@@H](C)C(=O)N[C@@H](Cc1c[nH]cn1)C(=O)N[C@H](C(N)=O)C(C)C)[C@@H](C)CC)[C@@H](C)O)[C@@H](C)O)[C@@H](C)CC)[C@@H](C)CC)C(C)C)C(C)C` [Compound 46] (H-IVLSLDVPIGLLQILLEQEKQEKEK([AEEA-AEEA-γGlu-γGlu-C18 diacid])QQATTNAQILAHV-NH2), the pEC50 is 7.93.

For the molecule `CC[C@H](C)[C@H](N)C(=O)N[C@H](C(=O)N[C@@H](CC(C)C)C(=O)N[C@@H](CO)C(=O)N[C@@H](CC(C)C)C(=O)N[C@@H](CC(=O)O)C(=O)N[C@H](C(=O)N1CCC[C@H]1C(=O)N[C@H](C(=O)NCC(=O)N[C@@H](CC(C)C)C(=O)N[C@@H](CC(C)C)C(=O)N[C@@H](CCC(N)=O)C(=O)N[C@H](C(=O)N[C@@H](CC(C)C)C(=O)N[C@@H](CC(C)C)C(=O)N[C@@H](CCC(=O)O)C(=O)N[C@@H](CCC(N)=O)C(=O)N[C@@H](CCC(=O)O)C(=O)N[C@@H](CCCCN)C(=O)N[C@@H](CCC(N)=O)C(=O)N[C@@H](CCC(=O)O)C(=O)N[C@@H](CCCCN)C(=O)N[C@@H](CCC(=O)O)C(=O)N[C@@H](CCCCN)C(=O)N[C@@H](CCCCNC(=O)COCCOCCNC(=O)COCCOCCNC(=O)CC[C@H](NC(=O)CC[C@H](NC(=O)CCCCCCCCCCCCCCCCC(=O)O)C(=O)O)C(=O)O)C(=O)N[C@@H](CCC(N)=O)C(=O)N[C@@H](C)C(=O)N[C@H](C(=O)N[C@H](C(=O)N[C@@H](CC(N)=O)C(=O)N[C@@H](C)C(=O)N[C@@H](CCC(N)=O)C(=O)N[C@H](C(=O)N[C@@H](CC(C)C)C(=O)N[C@@H](C)C(=O)N[C@@H](Cc1c[nH]cn1)C(=O)N[C@H](C(N)=O)C(C)C)[C@@H](C)CC)[C@@H](C)O)[C@@H](C)O)[C@@H](C)CC)[C@@H](C)CC)C(C)C)C(C)C` [Compound 47] (H-IVLSLDVPIGLLQILLEQEKQEKEKK([AEEA-AEEA-γGlu-γGlu-C18 diacid])QATTNAQILAHV-NH2), the pEC50 is 8.34.
